Results on five compounds are retold here after ChEMBL document CHEMBL2021859, “Practical access to four stereoisomers of naftidrofuryl and their binding affinity towards 5-hydroxytryptamine 2A receptor” (Bioorg Med Chem Lett, 2012).

The assay deals with 5-hydroxytryptamine receptor 2A (Homo sapiens, UniProt P28223). Nature of the assay: Displacement of [3H]ketanserin from 5HT2A receptor expressed in HEK293 cells by liquid scintillation spectrophotometry. It counts as cell-based. (In general: Loss of bound radioactivity is the signal in a displacement assay; it reports binding, not function.)

SMILES strings stand for the structures. Where a name gives a salt, the structure may show the parent alone.

Sequence of 5-hydroxytryptamine receptor 2A (P28223 whole entry): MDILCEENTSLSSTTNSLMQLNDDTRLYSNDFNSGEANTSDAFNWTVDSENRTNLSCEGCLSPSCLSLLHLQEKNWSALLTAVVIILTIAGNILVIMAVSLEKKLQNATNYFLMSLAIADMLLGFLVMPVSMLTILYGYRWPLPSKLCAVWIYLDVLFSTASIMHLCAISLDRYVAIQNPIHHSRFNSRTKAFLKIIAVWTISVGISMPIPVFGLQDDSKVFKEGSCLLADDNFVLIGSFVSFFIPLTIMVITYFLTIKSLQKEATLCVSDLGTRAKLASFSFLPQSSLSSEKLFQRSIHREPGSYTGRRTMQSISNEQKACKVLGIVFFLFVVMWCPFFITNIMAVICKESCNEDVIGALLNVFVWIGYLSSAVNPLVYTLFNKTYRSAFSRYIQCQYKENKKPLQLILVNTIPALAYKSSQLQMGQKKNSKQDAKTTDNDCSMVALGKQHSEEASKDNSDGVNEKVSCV

On to `CCN(CC)CCOC(=O)[C@@H](Cc1cccc2ccccc12)C[C@@H]1CCCO1`, for which the Ki was 153 nM (read-out: Ki) and 282 nM (read-out: pKi (converted)).

Regarding `CCN(CC)CCOC(=O)[C@H](Cc1cccc2ccccc12)C[C@@H]1CCCO1`, the Ki runs as follows: (read-out: Ki) 972 nM; (read-out: pKi (converted)) 1700 nM.

For `CCN(CC)CCOC(=O)[C@H](Cc1cccc2ccccc12)C[C@H]1CCCO1`, the Ki (read-out: Ki) turned out to be 2070 nM and the Ki (read-out: pKi (converted)) is 2290 nM.

As to `CCN(CC)CCOC(=O)[C@@H](Cc1cccc2ccccc12)C[C@H]1CCCO1`, the Ki is 150 nM (read-out: Ki) and 145 nM (read-out: pKi (converted)).

Regarding `CCN(CC)CCOC(=O)C(Cc1cccc2ccccc12)CC1CCCO1` (stereo not given) [NAFRONYL OXALATE], the Ki (read-out: Ki) came to 256 nM and the Ki (read-out: pKi (converted)) was 331 nM.
